Assay results from article PMC12475274, “Harnessing indole scaffolds to identify small-molecule IRE1α inhibitors modulating XBP1 mRNA splicing” (Nature Communications, 2025).
“And” between values parts separate entries of the source, which are not always exact repeats. Equal values may be shown once.

What was measured:
[1] = tested on: XBP1 mRNA splicing in HCT 116 cells; assay: RT-qPCR of ER stress-induced XBP1 mRNA splicing, HCT 116; type: cell-based, human; conditions: HCT 116 cells
Method: A549 cells, HCT 116 cells, and HT-29 cells were collected and seeded in 6-well plates at a density of 5 × 10^5 cells per well and cultured overnight to attach, then treated with compound or DMSO for 2 h, then 0.5 μg/mL final concentration of tunicamycin (Tm, MP Biomedi, 0215002805) were added to induce the ER stress for 2 h. After treatment, total RNA was purified using an RNeasy mini kit (Qiagen, 74106). 500 ng of total RNA was used for reverse transcription using the High-Capacity cDNA Reverse Transcription Kits (Thermo Fisher, 4368814). cDNA was diluted 1: 5 using RNase-free water, and 1 μL CDNA was used for each qPCR reaction. The qPCR was performed using PowerUp™ SYBR™ Green Master Mix (Thermo Fisher, A25742) with 10 µL reaction volume using Bio-Rad CFX96 Real-Time PCR Detection System following the standard cycling mode (primer Tm ≥ 60 °C) on the manufacturer’s protocol. Data was analyzed using the 2^- ΔΔCt method. The primers used are listed in Supplementary Table S3. The inhibition % was calculated by using the equation: inhibition% = 100× (normalized Tm control - normalized of the sample)/(normalized Tm control - normalized DMSO control). Tm control: Cells treated with tunicamycin; DMSO control: Cells treated with DMSO only.

IRE1β (ERN2) = IRE1β (ERN2) (Homo sapiens, UniProt Q76MJ5); assay: LanthaScreen Eu kinase binding assay, IRE1β
Method: LanthaScreen^TM Eu kinase binding assays were conducted by SelectScreen Kinase Profiling Services (Thermo Fisher) using Alexa Fluor conjugated kinase tracer, tagged kinase protein, and Eu-labeled anti-tag antibody. The binding of the tracer to the kinase will form the tracer-kinase complex, resulting in a high FRET signal with the Eu-labeled anti-tag antibody. Displacement of the tracer by a kinase inhibitor led to a decreased FRET signal. […] Buffer A containing 50 mM HEPES pH 7.5, 0.01% BRIJ-35, 10 mM MgCl2, and 1 mM EGTA was used.
(§1) Kinase profiling was conducted by the SelectScreen Kinase Profiling Services (Thermo Fisher), using Z′-LYTE, Adapta, or LanthaScreen Eu Kinase Binding Assay for different kinases. The kinome phylogenetic tree was generated using the KinMap web portal.

ERBB2 (HER2) = ERBB2 (HER2) (Homo sapiens, UniProt P04626); assay: Kinase profiling (SelectScreen), ZLYTE; type: biochemical
Method: as §1

RET = RET (Homo sapiens, UniProt P07949); assay: Kinase profiling (SelectScreen), ZLYTE; type: biochemical
Method: as §1

HIPK4 = HIPK4 (Homo sapiens, UniProt Q8NE63); assay: Kinase profiling (SelectScreen), ZLYTE; type: biochemical
Method: as §1

ROCK1 = ROCK1 (Homo sapiens, UniProt Q13464); assay: Kinase profiling (SelectScreen), ZLYTE; type: biochemical
Method: as §1

EPHB4 = EPHB4 (Homo sapiens, UniProt P54760); assay: Kinase profiling (SelectScreen), ZLYTE; type: biochemical
Method: as §1

EPHA2 = EPHA2 (Homo sapiens, UniProt P29317); assay: Kinase profiling (SelectScreen), ZLYTE; type: biochemical
Method: as §1

IKBKE (IKK epsilon) = IKBKE (IKK epsilon) (Homo sapiens, UniProt Q14164); assay: Kinase profiling (SelectScreen), ZLYTE; type: biochemical
Method: as §1

ACVR1B (ALK4) = ACVR1B (ALK4) (Homo sapiens, UniProt P36896); assay: Kinase profiling (SelectScreen), ZLYTE; type: biochemical
Method: as §1

PLK1 = PLK1 (Homo sapiens, UniProt P53350); assay: Kinase profiling (SelectScreen), ZLYTE; type: biochemical
Method: as §1

EEF2K = EEF2K (Homo sapiens, UniProt O00418); assay: Kinase profiling (SelectScreen), ZLYTE; type: biochemical
Method: as §1

PRKD1 (PKC mu) = PRKD1 (PKC mu) (Homo sapiens, UniProt Q15139); assay: Kinase profiling (SelectScreen), ZLYTE; type: biochemical
Method: as §1

GSK3B (GSK3 beta) = GSK3B (GSK3 beta) (Homo sapiens, UniProt P49841); assay: Kinase profiling (SelectScreen), ZLYTE; type: biochemical
Method: as §1

RPS6KA3 (RSK2) = RPS6KA3 (RSK2) (Homo sapiens, UniProt P51812); assay: Kinase profiling (SelectScreen), ZLYTE; type: biochemical
Method: as §1

TAOK2 (TAO1) = TAOK2 (TAO1) (Homo sapiens, UniProt Q9UL54); assay: Kinase profiling (SelectScreen), ZLYTE; type: biochemical
Method: as §1

NEK1 = NEK1 (Homo sapiens, UniProt Q96PY6); assay: Kinase profiling (SelectScreen), ZLYTE; type: biochemical
Method: as §1

MARK2 = MARK2 (Homo sapiens, UniProt Q7KZI7); assay: Kinase profiling (SelectScreen), ZLYTE; type: biochemical
Method: as §1

EGFR (ErbB1) = EGFR (ErbB1) (Homo sapiens, UniProt P00533); assay: Kinase profiling (SelectScreen), ZLYTE; type: biochemical
Method: as §1

KDR (VEGFR2) = KDR (VEGFR2) (Homo sapiens, UniProt P35968); assay: Kinase profiling (SelectScreen), ZLYTE; type: biochemical
Method: as §1

SYK = SYK (Homo sapiens, UniProt P43405); assay: Kinase profiling (SelectScreen), ZLYTE; type: biochemical
Method: as §1

MAP2K1 (MEK1) = MAP2K1 (MEK1) (Homo sapiens, UniProt Q02750); assay: Kinase profiling (SelectScreen), ZLYTE; type: biochemical; conditions: IA107 at 5 μM; ATP 100 μM
Method: as §1

DNA-PK = DNA-PK (Homo sapiens, UniProt P78527); assay: Kinase profiling (SelectScreen), ZLYTE; type: biochemical
Method: as §1

CAMK1D (CaMKI delta) = CAMK1D (CaMKI delta) (Homo sapiens, UniProt Q8IU85); assay: Kinase profiling (SelectScreen), ZLYTE; type: biochemical
Method: as §1

INSR = INSR (Homo sapiens, UniProt P06213); assay: Kinase profiling (SelectScreen), ZLYTE; type: biochemical
Method: as §1

PIM1 = PIM1 (Homo sapiens, UniProt P11309); assay: Kinase profiling (SelectScreen), ZLYTE; type: biochemical
Method: as §1

MET (cMet) = MET (cMet) (Homo sapiens, UniProt P08581); assay: Kinase profiling (SelectScreen), ZLYTE; type: biochemical
Method: as §1

PTK2 (FAK) = PTK2 (FAK) (Homo sapiens, UniProt Q05397); assay: Kinase profiling (SelectScreen), ZLYTE; type: biochemical
Method: as §1

RPS6KB1 (p70S6K) = RPS6KB1 (p70S6K) (Homo sapiens, UniProt P23443); assay: Kinase profiling (SelectScreen), ZLYTE; type: biochemical
Method: as §1

Sequence of IRE1β (ERN2) (Q76MJ5 35-926): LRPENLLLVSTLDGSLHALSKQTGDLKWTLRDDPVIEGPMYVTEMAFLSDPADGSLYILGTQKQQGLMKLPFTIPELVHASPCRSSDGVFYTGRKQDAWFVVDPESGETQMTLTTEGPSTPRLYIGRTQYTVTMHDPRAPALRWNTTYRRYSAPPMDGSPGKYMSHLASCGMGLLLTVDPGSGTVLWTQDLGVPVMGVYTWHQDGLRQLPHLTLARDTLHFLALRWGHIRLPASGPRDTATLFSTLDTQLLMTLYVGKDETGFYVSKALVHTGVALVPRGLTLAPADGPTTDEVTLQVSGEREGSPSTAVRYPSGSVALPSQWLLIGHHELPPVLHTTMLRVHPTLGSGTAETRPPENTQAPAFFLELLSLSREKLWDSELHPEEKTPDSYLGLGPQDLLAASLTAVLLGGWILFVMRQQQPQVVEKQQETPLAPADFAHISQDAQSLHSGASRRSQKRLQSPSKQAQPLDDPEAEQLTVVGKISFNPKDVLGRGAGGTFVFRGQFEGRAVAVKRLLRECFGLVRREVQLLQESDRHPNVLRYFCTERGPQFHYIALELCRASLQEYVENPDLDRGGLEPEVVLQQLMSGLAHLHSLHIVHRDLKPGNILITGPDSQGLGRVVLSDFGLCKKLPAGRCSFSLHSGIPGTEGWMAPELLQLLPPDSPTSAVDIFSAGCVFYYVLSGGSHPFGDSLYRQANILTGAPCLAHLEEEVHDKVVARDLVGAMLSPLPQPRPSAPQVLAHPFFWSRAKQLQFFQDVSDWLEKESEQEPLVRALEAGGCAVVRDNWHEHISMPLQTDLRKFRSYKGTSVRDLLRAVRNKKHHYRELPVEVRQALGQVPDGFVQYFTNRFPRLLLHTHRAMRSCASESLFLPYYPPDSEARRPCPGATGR
Sequence of MARK2 (Q7KZI7 whole entry): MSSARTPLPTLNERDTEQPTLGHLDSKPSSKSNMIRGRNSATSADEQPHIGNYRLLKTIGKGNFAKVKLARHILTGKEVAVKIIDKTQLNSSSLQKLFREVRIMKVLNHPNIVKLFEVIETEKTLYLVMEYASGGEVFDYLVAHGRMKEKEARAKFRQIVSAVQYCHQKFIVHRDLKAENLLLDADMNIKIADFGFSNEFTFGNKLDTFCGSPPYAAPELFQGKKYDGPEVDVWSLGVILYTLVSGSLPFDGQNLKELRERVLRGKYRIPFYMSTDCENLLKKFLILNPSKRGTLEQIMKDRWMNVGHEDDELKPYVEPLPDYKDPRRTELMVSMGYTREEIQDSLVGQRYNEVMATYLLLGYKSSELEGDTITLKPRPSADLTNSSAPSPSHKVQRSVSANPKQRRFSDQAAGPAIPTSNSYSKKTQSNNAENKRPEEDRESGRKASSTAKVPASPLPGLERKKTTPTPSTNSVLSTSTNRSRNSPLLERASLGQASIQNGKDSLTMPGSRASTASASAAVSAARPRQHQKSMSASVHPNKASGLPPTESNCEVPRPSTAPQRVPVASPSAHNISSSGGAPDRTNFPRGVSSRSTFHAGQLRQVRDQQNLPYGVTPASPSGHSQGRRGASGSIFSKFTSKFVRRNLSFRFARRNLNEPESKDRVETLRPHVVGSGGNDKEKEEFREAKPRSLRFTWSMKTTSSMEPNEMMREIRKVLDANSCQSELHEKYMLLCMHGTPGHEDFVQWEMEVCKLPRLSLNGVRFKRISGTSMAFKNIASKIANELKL
Sequence of ROCK1 (Q13464 whole entry): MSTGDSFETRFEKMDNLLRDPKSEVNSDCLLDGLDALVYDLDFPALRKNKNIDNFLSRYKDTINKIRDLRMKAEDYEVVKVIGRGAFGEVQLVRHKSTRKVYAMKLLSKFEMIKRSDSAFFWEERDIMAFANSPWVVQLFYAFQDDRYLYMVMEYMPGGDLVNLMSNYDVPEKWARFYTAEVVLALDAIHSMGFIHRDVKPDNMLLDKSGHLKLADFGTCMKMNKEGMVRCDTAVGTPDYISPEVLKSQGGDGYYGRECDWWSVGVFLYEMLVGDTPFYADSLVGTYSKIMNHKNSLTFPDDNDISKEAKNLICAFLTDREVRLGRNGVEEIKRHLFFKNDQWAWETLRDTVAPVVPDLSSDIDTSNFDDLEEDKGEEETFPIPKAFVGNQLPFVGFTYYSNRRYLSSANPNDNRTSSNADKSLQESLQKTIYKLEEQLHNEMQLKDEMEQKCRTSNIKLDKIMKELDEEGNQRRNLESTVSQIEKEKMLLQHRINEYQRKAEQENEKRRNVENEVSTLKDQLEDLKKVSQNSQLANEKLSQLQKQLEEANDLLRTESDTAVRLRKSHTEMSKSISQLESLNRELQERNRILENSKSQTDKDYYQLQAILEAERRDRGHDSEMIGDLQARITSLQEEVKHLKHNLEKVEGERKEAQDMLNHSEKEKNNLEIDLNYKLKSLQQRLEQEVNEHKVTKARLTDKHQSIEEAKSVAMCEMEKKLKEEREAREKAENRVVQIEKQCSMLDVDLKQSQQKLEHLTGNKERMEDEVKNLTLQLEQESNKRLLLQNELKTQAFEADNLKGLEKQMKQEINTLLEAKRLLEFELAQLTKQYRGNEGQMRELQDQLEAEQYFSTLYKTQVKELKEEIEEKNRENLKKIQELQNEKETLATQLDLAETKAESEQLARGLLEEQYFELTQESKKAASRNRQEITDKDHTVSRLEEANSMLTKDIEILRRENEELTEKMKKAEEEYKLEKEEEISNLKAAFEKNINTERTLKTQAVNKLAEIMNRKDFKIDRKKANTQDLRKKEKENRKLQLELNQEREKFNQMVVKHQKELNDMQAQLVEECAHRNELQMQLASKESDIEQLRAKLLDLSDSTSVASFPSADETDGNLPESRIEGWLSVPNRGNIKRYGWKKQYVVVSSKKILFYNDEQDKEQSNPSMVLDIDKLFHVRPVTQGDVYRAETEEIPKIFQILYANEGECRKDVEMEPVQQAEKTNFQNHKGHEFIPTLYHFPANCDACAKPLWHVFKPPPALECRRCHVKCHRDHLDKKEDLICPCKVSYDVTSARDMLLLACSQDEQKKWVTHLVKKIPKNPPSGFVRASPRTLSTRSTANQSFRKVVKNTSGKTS
Sequence of PRKD1 (PKC mu) (Q15139 whole entry): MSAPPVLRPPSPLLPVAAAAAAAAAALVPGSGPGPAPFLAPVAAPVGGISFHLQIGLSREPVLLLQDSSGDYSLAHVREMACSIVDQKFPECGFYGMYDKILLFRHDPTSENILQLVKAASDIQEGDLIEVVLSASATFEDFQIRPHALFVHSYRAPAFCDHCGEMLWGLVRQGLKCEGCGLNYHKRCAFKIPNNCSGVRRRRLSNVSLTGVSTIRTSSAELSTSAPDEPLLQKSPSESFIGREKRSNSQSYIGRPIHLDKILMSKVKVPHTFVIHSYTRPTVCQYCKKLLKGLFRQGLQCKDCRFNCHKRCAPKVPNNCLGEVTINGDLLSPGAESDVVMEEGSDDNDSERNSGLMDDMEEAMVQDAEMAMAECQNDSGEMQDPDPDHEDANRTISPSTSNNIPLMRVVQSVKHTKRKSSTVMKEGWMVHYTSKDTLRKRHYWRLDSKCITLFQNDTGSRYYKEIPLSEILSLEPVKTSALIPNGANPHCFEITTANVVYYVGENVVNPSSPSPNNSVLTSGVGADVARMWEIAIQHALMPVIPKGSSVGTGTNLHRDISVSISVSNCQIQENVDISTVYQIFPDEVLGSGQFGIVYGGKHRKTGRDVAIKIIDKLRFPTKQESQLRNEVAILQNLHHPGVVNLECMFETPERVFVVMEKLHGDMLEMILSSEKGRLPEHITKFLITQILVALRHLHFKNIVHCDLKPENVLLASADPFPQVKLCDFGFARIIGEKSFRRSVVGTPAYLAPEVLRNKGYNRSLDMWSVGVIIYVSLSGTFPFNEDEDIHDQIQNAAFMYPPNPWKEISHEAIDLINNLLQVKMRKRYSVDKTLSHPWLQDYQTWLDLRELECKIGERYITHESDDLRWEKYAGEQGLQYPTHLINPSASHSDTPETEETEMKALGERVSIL
Sequence of MAP2K1 (MEK1) (Q02750 whole entry): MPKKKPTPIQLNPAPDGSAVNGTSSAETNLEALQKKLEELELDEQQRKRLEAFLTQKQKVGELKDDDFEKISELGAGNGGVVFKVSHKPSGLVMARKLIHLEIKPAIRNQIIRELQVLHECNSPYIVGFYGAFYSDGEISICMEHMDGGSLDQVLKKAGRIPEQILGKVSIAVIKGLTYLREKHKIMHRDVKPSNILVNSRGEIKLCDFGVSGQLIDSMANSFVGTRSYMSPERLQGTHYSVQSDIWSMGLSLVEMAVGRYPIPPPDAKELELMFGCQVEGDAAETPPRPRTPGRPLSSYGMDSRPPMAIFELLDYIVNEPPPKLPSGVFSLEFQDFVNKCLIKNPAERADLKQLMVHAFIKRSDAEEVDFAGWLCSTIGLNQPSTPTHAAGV
Sequence of ACVR1B (ALK4) (P36896 24-505): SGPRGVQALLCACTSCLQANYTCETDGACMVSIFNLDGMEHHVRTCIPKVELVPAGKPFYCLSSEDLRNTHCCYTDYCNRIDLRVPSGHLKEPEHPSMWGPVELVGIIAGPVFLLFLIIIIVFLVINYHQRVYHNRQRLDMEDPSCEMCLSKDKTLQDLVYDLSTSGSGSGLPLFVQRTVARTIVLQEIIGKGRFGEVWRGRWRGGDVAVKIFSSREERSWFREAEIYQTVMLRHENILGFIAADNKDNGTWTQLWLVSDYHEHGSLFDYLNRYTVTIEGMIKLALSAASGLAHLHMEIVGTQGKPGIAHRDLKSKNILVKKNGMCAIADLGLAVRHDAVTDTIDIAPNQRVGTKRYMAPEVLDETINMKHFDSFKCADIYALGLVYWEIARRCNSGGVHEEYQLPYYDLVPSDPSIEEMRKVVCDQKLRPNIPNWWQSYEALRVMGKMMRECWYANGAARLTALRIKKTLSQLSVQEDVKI

`CCOC(=O)CCc1c(C)n(C(=O)c2ccccc2)c2ccc(Br)cc12` [IAPD1] was tested, and the “inhibition of ER stress-induced XBP1 mRNA splicing” value [1] was “inhibited” and the IC50 ([1]; Homo sapiens) was 220 nM.
In the case of `Cc1c(CCC(=O)O)c2cc(Br)ccc2n1C(=O)c1ccccc1` [IA107], the “IRE1β Kinase Displacement(%)” value (IRE1β (ERN2); 16700 μM as printed) is reported as 87.04% and 84.54%, the IC50 (IRE1β (ERN2); LanthaScreen Eu kinase binding assay, read-out: IRE1β (ERN2) kinase domain IC50) is reported as 1440 nM and the “selectivity for IRE1α over IRE1β” value (IRE1β (ERN2); kinase binding IC50s) is reported as 2 fold. It also gave an inhibition at 5 µM (IRE1β (ERN2); kinase profiling, ERN2, LanthaScreen Binding, IA107 at 5 μM) of 70%, an inhibition at 5 µM (ERBB2 (HER2)) of -3% and an inhibition at 5 µM (RET) of 9%. For the same compound, the inhibition at 5 µM (HIPK4) was 6%, the inhibition at 5 µM (ROCK1) was 1% and the inhibition at 5 µM (EPHB4) was 3%. The inhibition at 5 µM (EPHA2) was 4%, the inhibition at 5 µM (IKBKE (IKK epsilon)) was 2% and the inhibition at 5 µM (ACVR1B (ALK4)) was -5%. It also gave an inhibition at 5 µM (PLK1) of 3%, an inhibition at 5 µM (EEF2K) of 5% and an inhibition at 5 µM (PRKD1 (PKC mu)) of 0%. For the same compound, the inhibition at 5 µM (GSK3B (GSK3 beta)) was 21%, the inhibition at 5 µM (RPS6KA3 (RSK2)) was 1% and the inhibition at 5 µM (TAOK2 (TAO1)) was -4%. The inhibition at 5 µM (NEK1) was 17%, the inhibition at 5 µM (MARK2) was 8% and the inhibition at 5 µM (EGFR (ErbB1)) was 5%. It also gave an inhibition at 5 µM (KDR (VEGFR2)) of 1%, an inhibition at 5 µM (SYK) of 3% and an inhibition at 5 µM (MAP2K1 (MEK1)) of 3%. The inhibition at 5 µM (DNA-PK) was -2%, the inhibition at 5 µM (CAMK1D (CaMKI delta)) was 8% and the inhibition at 5 µM (INSR) was 5%. The inhibition at 5 µM (PIM1) was 39%, the inhibition at 5 µM (MET (cMet)) was 3% and the inhibition at 5 µM (PTK2 (FAK)) was 4%. It also gave an inhibition at 5 µM (RPS6KB1 (p70S6K)) of 3%.
